Assay results as given in publication PMC3552485 (ACS Chemical Biology, 2012).

Biological target: T1, TarO (N-acetylglucosamine-1-phosphate transferase) (Staphylococcus aureus, UniProt Q2G060)
T1 sequence (Q2G060 1-351): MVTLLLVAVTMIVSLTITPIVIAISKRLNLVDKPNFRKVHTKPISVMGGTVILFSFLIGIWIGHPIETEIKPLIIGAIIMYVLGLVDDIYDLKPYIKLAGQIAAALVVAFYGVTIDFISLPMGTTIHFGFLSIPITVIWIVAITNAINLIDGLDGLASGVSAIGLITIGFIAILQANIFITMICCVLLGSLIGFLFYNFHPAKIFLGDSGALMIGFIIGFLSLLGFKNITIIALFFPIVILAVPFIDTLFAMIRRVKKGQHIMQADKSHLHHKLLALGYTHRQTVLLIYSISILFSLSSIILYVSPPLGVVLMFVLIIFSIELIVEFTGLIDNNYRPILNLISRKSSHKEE
Type: biochemical

IC50: 238 ± 14 µM
SMILES: Clc1ccccc1CN1CCc2sccc2C1 [ticlopidine]
